“Also recorded” adds a separate entry of the source.
Legend:
normal adult rats = assay: rt-PA-induced hemorrhagic transformation model (intracortical rt-PA) in normal adult rats: Evans blue extravasation and infarct volume; type: in vivo, rat; conditions: intracortical 0.66 mg/kg rt-PA
Procedure: Male Sprague-Dawley rats (340-380 g) were anesthetized with chloral hydrate (400 mg/kg, IP). The animals received intracortical injection of rt-PA (0.66 mg/kg; total […]) coordinated with 2.6 mm posterior, 5.4 mm lateral, and 3.8 mm from bregma at a flow rate of 0.5 μL/min using a infusion pump and Hamilton syringe. After the end of infusion, the syringe was removed from the cortex and nelonemdazK (30 mg/kg) was administrated through femoral vein for 5 min (3 mg/mL; 10 mL/kg). Six hours later, the rats were anesthetized and intravenously administrated with 4% Evans blue solution. Twenty minutes later, the rats were perfused transcardially first with saline and next with 4% paraformaldehyde. The brain was removed immediately and placed in the fixative for 15 min and scanned for evaluation of extravasation area of Evans blue to indirectly measure rt-PA-induced hemorrhagic transformation which occurs as a result of the breakdown of the blood-brain barrier (Jiang et al., 2018). To evaluate brain damage volume, the brain tissues were stored in 4% paraformaldehyde for 3 days and then processed overnight for paraffin embedding and cresyl violet staining. The extravasation area was measured by TINA imaging system (KAIST, Korea).
Animals received the intracortical injection of 0.66 mg/kg rt-PA that was followed by subsequent IV administration of vehicle or 30 mg/kg nelonemdazK 5 min later. Hemorrhagic transformation was investigated by analyzing extravasation of Evans blue dye at 6 h after rt-PA. (Upper panel) Compared to the sham control group, administration of rt-PA produced hemorrhagic transformation evident by extravasation of Evans blue, which was prevented by subsequent treatment with nelonemdazK.
Animals received sham operation or the intracortical injection of 0.66 mg/kg rt-PA, alone or with the subsequent intravenous administration of vehicle or 30 mg/kg nelonemdazK. Animals were sacrificed 6 h later and infarct volume was analyzed after staining brain sections with cresyl violet. (Upper panel) Photographs of brain sections stained with cresyl violet. Note brain lesion following the intracortical injections of rt-PA that was prevented by the administration of nelonemdazK. (Lower panel) Quantitation of infarct volume (Mean±S.E.M., n=3 for sham and 6 for rt-PA-treated groups) by summation of lesion areas in brain sections.

[1] = test system: adult rats treated with rt-PA after 3-h tMCAO; assay: rt-PA-induced hemorrhagic transformation following 3-h occlusion of middle cerebral artery (tMCAO); type: in vivo, rat; conditions: for hemorrhage / hemorrhagic transformation in the brain: 10 mg/kg rt-PA IV plus 30 mg/kg IV after reperfusion, 3-h tMCAO, 24 h, potassium salt
Procedure: Male Sprague-Dawley rats (300-350 g; 15-16 animals/group) were anesthetized with chloral hydrate (400 mg/kg, IP) and the anesthesia was sustained for about 1.5 h during the procedure. The rectal temperature was recorded and maintained at 37.0-37.5° C. using a rectal probe and homoeothermic blanket controlled by a temperature control unit (Letica Scientific Instruments). Occlusion of the MCA was done according to the previous report (Gwag et al., 2007). Briefly, the right common carotid artery, external carotid artery (ECA), and internal carotid artery (ICA) were exposed. A length of 4-0 monofilament nylon suture (17 mm, pre-coated with silicone) with its tip rounded by heating near a flame was advanced from the lumen of the ICA until it blocked the origin of the middle cerebral artery (MCA). The suture remained for 3 h and was withdrawn for reperfusion. After 24 h, the brain was removed immediately, placed in the fixative for 15 min, and used for further analysis.
Animals received transient focal cerebral ischemia for 3 h as described above with intravenous administration of 10 mg/kg rt-PA or 10 mg/kg rt-PA plus 30 mg/kg nelonemdazK after reperfusion. rt-PA (10 mg/kg) dissolved in water for injection ([…]) was injected through femoral vein over 20 min from 5 min after reperfusion. NelonemdazK (30 mg/kg) dissolved in saline (6 mg/mL; 5 mL/kg) was injected through femoral vein over 5 min immediately after the end of rt-PA infusion.

[2] = test system: acute ischemic stroke patients; assay: ENIS phase II trial: acute ischemic stroke patients receiving a thrombolytic drug; type: in vivo, human; conditions: for good recovery ratio (patients with NIHSS score of 0-1 or decrease of NIHSS score≥4): 14 days; for ratio of mRS 0 (no symptoms at all): 6,000 mg
Procedure: The ENIS trial was to examine efficacy as well as safety of the intravenous infusions of nelonemdazK for acute ischemic stroke patients (35-80 years old) receiving at least one kind of thrombolytic drugs including rtPA or urokinase within 8 hours of onset. A total of 238 patients were enrolled for the ENIS trial and allocated randomly in a double-blinded manner to one of 4 groups for the intravenous infusions of test drugs as follows: (Group A) placebo [0.9% normal saline], (Group B) 2,750 mg nelonemdazK for 5 days [500 mg for 1st infusion followed by 2nd-10th infusions approximately at 12 h intervals (250 mg for each infusion)], (Group C) 5,250 mg nelonemdazK for 5 days [750 mg for 1st infusion followed by 2nd-10th infusions approximately at 12 h intervals (500 mg for each)], and (Group D) 6,000 mg nelonemdazK for 5 days [1500 mg for 1st infusion followed by 2nd-10th infusions approximately at 12 h intervals (500 mg for each)]. Acute ischemic stroke patients due to occlusion in internal carotid artery system within 8 hours of onset were enrolled. Patients with The National Institutes of Health Stroke Scale (NIHSS; range 0-42, with higher scores indicating greater stroke severity) scores of 4 to 22 and limb weakness including motor arm or motor leg score≥2 of NIHSS were included. All the patients received at least one kind of thrombolytic therapy before treatment of any study drug.
The beneficial effects of nelonemdazK were further observed by analyzing “the ratio of patients with NIHSS score of 0-1 or decrease of NIHSS score≥4 (=the good recovery ratio)” at 14 days after drug treatment. […] This implies that the beneficial effects of nelonemdazK are better for moderate to severe ([…]) ischemic stroke patients than mild (NIHSS score≤5) patients.

healthy volunteers = conditions: human, in vivo
Description: NMDA receptor antagonists were reported to produce serious side effects in healthy humans.

[3] = test system: mice treated with rt-PA after embolic stroke; assay: Embolic stroke in mice treated with rt-PA: hemorrhage and brain injury at 24 h; type: in vivo; conditions: 10 mg/kg rt-PA plus nelonemdazK IV at 4.5 hours after embolic stroke, analyzed at 24 hours
Procedure: Embolic stroke was induced by injection of blood clot into the right internal carotid artery of mice. Animals received intravenous administration of saline, 10 mg/kg rt-PA, or 10 mg/kg rt-PA plus nelonemdazK through femoral vein at 4.5 hours after embolic stroke. rt-PA was dissolved in water and injected over 20 min. NelonemdazK was dissolved in saline and injected over 5 min immediately after rt-PA infusion. Hemorrhage and brain injury were analyzed 24 hours after embolic stroke.

Structure (SMILES): O=C([O-])c1cc(NCc2c(F)c(F)c(C(F)(F)F)c(F)c2F)ccc1O.[K+] [nelonemdazK, 2-Hydroxy-5-(2,3,5,6-tetrafluoro-4-trifluoromethylbenzylamino)benzoic acid potassium salt]
- hemorrhagic transformation evident by extravasation of Evans blue (normal adult rats; 30 mg/kg IV 5 min later, 6 h after rt-PA): prevented
- brain lesion (cresyl violet) (normal adult rats; 30 mg/kg IV, 6 h): prevented
- volume of Evans blue extravasation (normal adult rats; 30 mg/kg IV, 6 h, vs vehicle, p<0.05): significantly reduced
- infarct volume (normal adult rats; 30 mg/kg IV, 6 h after rt-PA, vs vehicle): significantly reduced
- rate of hemorrhagic transformation ([1]; 10 mg/kg rt-PA IV plus 30 mg/kg IV after 3-h tMCAO, p<0.05 Fisher's exact test): significantly reduced
- hemorrhage / hemorrhagic transformation in the brain ([1]; listed as NelonemdazK): prevented hemorrhage
- hemorrhage / hemorrhagic transformation in the brain [1]: prevents hemorrhagic transformation
- percentage of mRS 0-2 (functional independence) ([2]; 6,000 mg for 5 days, 14, 30, and 90 days, baseline NIHSS 6-24, vs placebo, potassium salt): increases
- good recovery ratio (patients with NIHSS score of 0-1 or decrease of NIHSS score≥4) ([2]; 6,000 mg (N=9), baseline NIHSS 9-24 (placebo 20%, p=0.022)): 50%
- good recovery ratio (patients with NIHSS score of 0-1 or decrease of NIHSS score≥4) ([2]; 6,000 mg (N=36), baseline NIHSS 6-24 (placebo 25.53%, p=0.106)): 41.67%
- ratio of mRS 0 (no symptoms at all) ([2]; at 14 days, baseline NIHSS 6-24 (placebo 12%)): 25%
- ratio of mRS 0 (no symptoms at all) ([2]; at 30 days, baseline NIHSS 6-24 (placebo 16%)): 34%
- ratio of mRS 0 (no symptoms at all) ([2]; at 90 days, baseline NIHSS 6-24 (placebo 26%)): 45%
- Number of subjects showing abnormal behavior: Agitation (healthy volunteers): 0
- Number of subjects showing abnormal behavior: Catatonia (healthy volunteers): 0
- Number of subjects showing abnormal behavior: Confusion (healthy volunteers): 0
- Number of subjects showing abnormal behavior: Hallucination (healthy volunteers): 0
- Number of subjects showing abnormal behavior: Paranoia (healthy volunteers): 0
- levels of hemoglobin in the ischemic brain region [3]: significantly reduced
- hemorrhage / hemorrhagic transformation in the ischemic brain region ([3]; potassium salt, 10 mg/kg): significantly reduced; also recorded: prevents hemorrhagic transformation

From patent US12433861B2, “Compositions and methods for treating reperfusion injury or hemorrhage after recanalization therapy” (GNT Pharma Co., Ltd., priority 2020, dated 2025)
